# Assay results published in PubChem BioAssay (NCI).
#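 Exposure lasted 48 hours, with cells grown in 96-well plates and compounds tested at five concentrations. TGI: concentration producing complete growth inhibition.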
# Experiments:
# Assay in all cases: NCI-60 cell line screen, 48 h
# [1] = system: 786-0 renal
# [2] = system: A498 renal
# [3] = system: A549 NSCLC
# [4] = system: ACHN renal
# [5] = system: BT-549 breast
# [6] = system: CAKI-1 renal
# [7] = system: CCRF-CEM leukemia
# [8] = system: COLO 205 colon
# [9] = system: DU-145 prostate
# [10] = system: EKVX NSCLC
# [11] = system: HCC-2998 colon
# [12] = system: HCT-116 colon
# [13] = system: HCT-15 colon
# [14] = system: HL-60(TB) leukemia
# [15] = system: HOP-62 NSCLC
# [16] = system: HS 578T breast
# [17] = system: HT29 colon
# [18] = system: IGROV1 ovarian
# [19] = system: K-562 leukemia
# [20] = system: KM12 colon
# [21] = system: LOX IMVI melanoma
# [22] = system: M14 melanoma
# [23] = system: MALME-3M melanoma
# [24] = system: MCF7 breast
# [25] = system: MDA-MB-231 breast
# [26] = system: MDA-MB-435
# [27] = system: MDA-N
# [28] = system: MOLT-4 leukemia
# [29] = system: NCI-H226 lung
# [30] = system: NCI-H23 lung
# [31] = system: NCI-H460 lung
# [32] = system: NCI-H522 lung
# [33] = system: NCI/ADR-RES ovarian
# [34] = system: OVCAR-3 ovarian
# [35] = system: OVCAR-4 ovarian
# [36] = system: OVCAR-5 ovarian
# [37] = system: OVCAR-8 ovarian
# [38] = system: PC-3 prostate
# [39] = system: RPMI-8226 leukemia
# [40] = system: RXF 393 renal
# [41] = system: SF-268 CNS
# [42] = system: SF-295 CNS
# [43] = system: SF-539 CNS
# [44] = system: SK-MEL-2 melanoma
# [45] = system: SK-MEL-28 melanoma
# [46] = system: SK-MEL-5 melanoma
# [47] = system: SK-OV-3 ovarian
# [48] = system: SN12C renal
# [49] = system: SNB-75 CNS
# [50] = system: SW-620 colon
# [51] = system: T-47D breast
# [52] = system: TK-10 renal
# [53] = system: U251 CNS
# [54] = system: UACC-257 melanoma
# [55] = system: UACC-62 melanoma
# [56] = system: UO-31 renal
# [57] = system: HOP-92 NSCLC
# [58] = system: SNB-19 CNS
# [59] = system: SR leukemia
smiles,measurement,setting,value
NC(Cc1ccc(S(=O)(=O)O)cc1)C(=O)NC(CCCCNC(=O)NCCCCC(NC(=O)C(N)Cc1ccc(S(=O)(=O)O)cc1)C(=O)NC(Cc1ccc(S(=O)(=O)O)cc1)C(=O)O)C(=O)NC(Cc1ccc(S(=O)(=O)O)cc1)C(=O)O (centres undefined),TGI,[1],> 100 µM
same,TGI,[2],> 100 µM
same,TGI,[3],> 100 µM
same,TGI,[4],> 100 µM
same,TGI,[5],> 100 µM
same,TGI,[6],> 100 µM
same,TGI,[7],> 100 µM
same,TGI,[8],> 100 µM
same,TGI,[9],> 100 µM
same,TGI,[10],> 100 µM
same,TGI,[11],> 100 µM
same,TGI,[12],> 100 µM
same,TGI,[13],> 100 µM
same,TGI,[14],> 100 µM
same,TGI,[15],> 100 µM
same,TGI,[16],> 100 µM
same,TGI,[17],> 100 µM
same,TGI,[18],> 100 µM
same,TGI,[19],> 100 µM
same,TGI,[20],> 100 µM
same,TGI,[21],> 100 µM
same,TGI,[22],> 100 µM
same,TGI,[23],> 100 µM
same,TGI,[24],> 100 µM
same,TGI,[25],> 100 µM
same,TGI,[26],> 100 µM
same,TGI,[27],> 100 µM
same,TGI,[28],> 100 µM
same,TGI,[29],> 100 µM
same,TGI,[30],> 100 µM
same,TGI,[31],> 100 µM
same,TGI,[32],> 100 µM
same,TGI,[33],> 100 µM
same,TGI,[34],> 100 µM
same,TGI,[35],> 100 µM
same,TGI,[36],> 100 µM
same,TGI,[37],> 100 µM
same,TGI,[38],> 100 µM
same,TGI,[39],> 100 µM
same,TGI,[40],> 100 µM
same,TGI,[41],> 100 µM
same,TGI,[42],> 100 µM
same,TGI,[43],> 100 µM
same,TGI,[44],> 100 µM
same,TGI,[45],> 100 µM
same,TGI,[46],> 100 µM
same,TGI,[47],> 100 µM
same,TGI,[48],> 100 µM
same,TGI,[49],> 100 µM
same,TGI,[50],> 100 µM
same,TGI,[51],> 100 µM
same,TGI,[52],> 100 µM
same,TGI,[53],> 100 µM
same,TGI,[54],> 100 µM
same,TGI,[55],> 100 µM
same,TGI,[56],> 100 µM
Cc1ccc2c3c1O[C@H]1c4[nH]c5ccccc5c4C[C@@]4(O)[C@@H](C2)N(C)CC[C@]314,TGI,[1],29.8 µM
same,TGI,[2],32.3 µM
same,TGI,[3],32.9 µM
same,TGI,[4],29.5 µM
same,TGI,[5],31.8 µM
same,TGI,[6],34.4 µM
same,TGI,[7],35 µM
same,TGI,[8],30.2 µM
same,TGI,[9],39 µM
same,TGI,[12],31 µM
same,TGI,[13],32.5 µM
same,TGI,[14],30.7 µM
same,TGI,[57],23.2 µM
same,TGI,[16],21.5 µM
same,TGI,[17],25.6 µM
same,TGI,[18],34.9 µM
same,TGI,[19],36.8 µM
same,TGI,[20],33.8 µM
same,TGI,[21],29.6 µM
same,TGI,[22],31.1 µM
same,TGI,[23],29.3 µM
same,TGI,[24],30 µM
same,TGI,[25],28.5 µM
same,TGI,[26],28.3 µM
same,TGI,[27],33.3 µM
same,TGI,[28],36.7 µM
same,TGI,[29],23.1 µM
same,TGI,[30],40.4 µM
same,TGI,[32],36 µM
same,TGI,[33],35.8 µM
same,TGI,[35],34 µM
same,TGI,[36],38.2 µM
same,TGI,[37],34.8 µM
same,TGI,[38],33.6 µM
same,TGI,[39],31.6 µM
same,TGI,[40],22.7 µM
same,TGI,[41],34.7 µM
same,TGI,[43],31.9 µM
same,TGI,[44],35.3 µM
same,TGI,[46],28.2 µM
same,TGI,[48],39.4 µM
same,TGI,[58],34.3 µM
same,TGI,[59],41.9 µM
same,TGI,[50],30.1 µM
same,TGI,[53],29.5 µM
same,TGI,[54],28.2 µM
same,TGI,[55],31.1 µM
same,TGI,[56],27.1 µM
